Here are results for 1 compound from patent publication US20110236859A1, “ORAL CARE COMPOSITION CONTAINING OXIDASE ENZYME” (priority 2009, published 2011).

This assay can be described thus: Glucose oxidase binding to saliva-coated hydroxyapatite disks (Amplex Red horseradish peroxidase coupled assay). As for the experimental part:
Glucose oxidase binding to saliva coated hydroxyappetite disks is measured using a fluorescent (Amplex Red) horseradish peroxidase coupled assay directly from the disk surface.
Hydroxyapatite (HAP) disks coated with saliva are commonly used as models of a tooth surface.
Saliva was collected from 3-5 donors, clarified by centrifugation, and added to cover HAP disks (5 mm×2.0 mm Clarkson Chromatography) in a covered plastic tray. The disks were incubated with the saliva overnight, with gentle shaking, at room temperature. The disks were rinsed twice with 50 mM phosphate buffer prior to use in the binding assay. Varying concentrations of glucose oxidase (50-650 mU/ml) were added to the saliva-coated HAP disks in the presence of sorbitol (0.8-8%) or polyethyleneimine (1%). The amount of glucose oxidase retained on the hydroxyapatite disks, following three consecutive washes with phosphate buffered saline, was measured using a fluorescence (Amplex Red, Molecular Probes #A22189) horseradish peroxidase coupled assay, as per manufacturer's recommendation.

For `OC[C@@H](O)[C@@H](O)[C@H](O)[C@@H](O)CO` [sorbitol], the “binding of glucose oxidase to saliva coated hydroxyapatite disks relative to no additive” value (FIG. 1, additive sorbitol 8, 0.8, 0.08%, fluorescent Amplex Red HRP coupled assay from disk surface) is “improve binding relative to no additive”. Moreover, the “amount of active glucose oxidase detected on the hydroxyapatite” value (at least 0.8% sorbitol, glucose oxidase 50-650 mU/ml, after three washes with phosphate buffered saline) is listed as “increased the amount of active glucose oxidase detected on the hydroxyapatite”.
